Experimental data reported in US12077503B2, “Substituted cyclic amides and their use as herbicides” (FMC CORPORATION, priority 2015, dated 2024).

Tests used:
Format in all cases: in vivo
Kochia (Kochia scoparia) [1] = test: Test A preemergence
Method in brief: (§1)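 Greenhouse, ~10 d after spray; visual injury vs untreated controls, 0 = no effect, 100 = complete control. Preemergence: directed soil spray over planted seeds. Postemergence: plants 2–10 cm, 1–2 leaf stage. Loam/sand blend. Compound in non-phytotoxic solvent with surfactant.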

[2] = system: barnyardgrass (Echinochloa crus-galli); test: Test A preemergence
Method in brief: as §1

[3] = system: giant foxtail (Setaria faberii); test: Test A preemergence
Method in brief: as §1

[4] = system: pigweed (Amaranthus retroflexus); test: Test A preemergence
[5] = system: ragweed (common ragweed, Ambrosia elatior); test: Test A preemergence
Method in brief: as §1

[6] = system: ryegrass, Italian (Italian ryegrass, Lolium multiflorum); test: Test A preemergence
Method in brief: as §1

[7] = system: Galium (catchweed bedstraw, Galium aparine); test: Test A postemergence
Method in brief: as §1

Kochia (Kochia scoparia) [8] = test: Test A postemergence
Method in brief: as §1

[9] = system: barnyardgrass (Echinochloa crus-galli); test: Test A postemergence
Method in brief: as §1

[10] = system: blackgrass (Alopecurus myosuroides); test: Test A postemergence
Method in brief: as §1

corn (Zea mays) = test: Test A postemergence
Method in brief: as §1

[11] = system: giant foxtail (Setaria faberii); test: Test A postemergence
Method in brief: as §1

[12] = system: pigweed (Amaranthus retroflexus); test: Test A postemergence
Method in brief: as §1

[13] = system: ragweed (common ragweed, Ambrosia elatior); test: Test A postemergence
Method in brief: as §1

[14] = system: ryegrass, Italian (Italian ryegrass, Lolium multiflorum); test: Test A postemergence
Method in brief: as §1

[15] = system: wheat (Triticum aestivum); test: Test A postemergence
Method in brief: as §1

[16] = system: barnyardgrass (Echinochloa crus-galli); test: Test B flooded paddy test; conditions: Flood, 250 g ai/ha
Method in brief: (§2)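 2-leaf plants; pots flooded 3 cm over soil; cpd added to paddy water; depth held; greenhouse 13–15 d; visual rating vs controls, 0 = no effect, 100 = complete control.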

[17] = system: ducksalad (Heteranthera limosa); test: Test B flooded paddy test; conditions: Flood, 250 g ai/ha
Method in brief: as §2

rice (Oryra sativa) = test: Test B flooded paddy test; conditions: Flood, 250 g ai/ha
Method in brief: as §2

[18] = system: sedge, umbrella (small-flower umbrella sedge, Cyperus difformis); test: Test B flooded paddy test; conditions: 250 g ai/ha, Flood, 0 to 100 scale where 0 is no effect and 100 is complete control
Method in brief: as §2

[19] = 125 g ai/ha, Preemergence, visual injury rating after approximately 10 d
[20] = 500 g ai/ha, preemergence, visual injury rating about 10 d after treatment, 0 to 100 scale (0 no effect, 100 complete control)
[21] = 125 g ai/ha, Postemergence, visual injury after approximately 10 d, 0 to 100 scale where 0 is no effect and 100 is complete control
[22] = scale of 0 to 100 where 0 is no effect and 100 is complete control
[23] = 125 g ai/ha, preemergence, 0 to 100 scale (0 no effect, 100 complete control)
[24] = Preemergence, 500 g ai/ha, 0 is no effect, 100 is complete control
[25] = 500 g ai/ha, postemergence, 0 to 100 scale, 0 no effect, 100 complete control
[26] = Postemergence, 125 g ai/ha, visual injury, 0 to 100 scale (0 no effect, 100 complete control), approx. 10 d
[27] = 0 to 100 scale where 0 is no effect and 100 is complete control, 13 to 15 d

Cc1c(F)cccc1NC(=O)[C@H]1C(=O)NC[C@@H]1c1ccc2c(c1)OCO2 (stereo in doubt) [Compound 989]
Kochia plant response rating (0 to 100 scale, 0 is no effect, 100 is complete control) (Kochia (Kochia scoparia) [1]; [19]): 0 | Kochia plant response rating (Kochia (Kochia scoparia) [1]; [20]): 90 | Barnyardgrass plant response rating (0 to 100 scale, 0 is no effect, 100 is complete control) [2, 19]: 70 | Barnyardgrass plant response rating [2, 20]: 90 | Foxtail, Giant plant response rating (0 to 100 scale, 0 is no effect, 100 is complete control) [3, 19]: 70 | Foxtail, Giant plant response rating [3, 20]: 90 | Pigweed plant response rating (0 to 100 scale, 0 is no effect, 100 is complete control) [4, 19]: 0 | Pigweed plant response rating [4, 20]: 0 | Ragweed plant response rating (0 to 100 scale, 0 is no effect, 100 is complete control) [5, 19]: 0 | Ragweed plant response rating [5, 20]: 40 | Ryegrass, Italian plant response rating (0 to 100 scale, 0 is no effect, 100 is complete control) [6, 19]: 0 | Ryegrass, Italian plant response rating [6, 20]: 0 | Plant response rating, Galium [7, 21]: 20 | Plant response rating, Kochia (Kochia (Kochia scoparia) [8]; [21]): 0 | Plant response rating, Barnyardgrass [9, 21]: 80 | Plant response rating, Blackgrass [10, 21]: 0 | Plant response rating, Corn (corn (Zea mays); [21]): 0 | Plant response rating, Foxtail, Giant [11, 21]: 50 | Plant response rating, Pigweed [12, 21]: 0 | Plant response rating, Ragweed [13, 21]: 0 | Plant response rating, Ryegrass, Italian [14, 21]: 0 | Plant response rating, Wheat [15, 21]: 0 | Barnyardgrass plant response rating [16, 22]: 15 | Ducksalad plant response rating [17, 22]: 100 | Rice plant response rating (rice (Oryra sativa); [22]): 0 | Sedge, Umbrella plant response rating [18]: 0

CC(C)Oc1cccc(C2CN(C)C(=O)C2C(=O)Nc2ccc(F)cc2F)c1 (centres unmarked) [Compound 378]
Plant response rating, Kochia (Kochia (Kochia scoparia) [1]; [23]): 80 | Kochia plant response rating (0 to 100 scale) (Kochia (Kochia scoparia) [1]; [24]): 90 | Plant response rating, Barnyardgrass [2, 23]: 20 | Barnyardgrass plant response rating (0 to 100 scale) [2, 24]: 90 | Plant response rating, Foxtail, Giant [3, 23]: 90 | Foxtail, Giant plant response rating (0 to 100 scale) [3, 24]: 100 | Plant response rating, Pigweed [4, 23]: 60 | Pigweed plant response rating (0 to 100 scale) [4, 24]: 80 | Plant response rating, Ragweed [5, 23]: 10 | Ragweed plant response rating (0 to 100 scale) [5, 24]: 50 | Plant response rating, Ryegrass, Italian [6, 23]: 50 | Ryegrass, Italian plant response rating (0 to 100 scale) [6, 24]: 80 | Plant response rating, Galium [7, 25]: 70 | Plant response rating, Galium [7, 26]: 60 | Plant response rating, Kochia (Kochia (Kochia scoparia) [8]; [25]): 70 | Plant response rating, Kochia (Kochia (Kochia scoparia) [8]; [26]): 50 | Plant response rating, Barnyardgrass [9, 25]: 90 | Plant response rating, Barnyardgrass [9, 26]: 80 | Plant response rating, Blackgrass [10, 25]: 70 | Plant response rating, Blackgrass [10, 26]: 50 | Plant response rating, Corn (corn (Zea mays); [25]): 80 | Plant response rating, Corn (corn (Zea mays); [26]): 50 | Plant response rating, Foxtail, Giant [11, 25]: 80 | Plant response rating, Foxtail, Giant [11, 26]: 80 | Plant response rating, Pigweed [12, 25]: 50 | Plant response rating, Pigweed [12, 26]: 0 | Plant response rating, Ragweed [13, 25]: 50 | Plant response rating, Ragweed [13, 26]: 20 | Plant response rating, Ryegrass, Italian [14, 25]: 70 | Plant response rating, Ryegrass, Italian [14, 26]: 40 | Plant response rating, Wheat [15, 25]: 50 | Plant response rating, Wheat [15, 26]: 40 | Plant response rating, Barnyardgrass [16, 27]: 70 | Plant response rating, Ducksalad [17, 27]: 30 | Plant response rating, Rice (rice (Oryra sativa); [27]): 0 | Plant response rating, Sedge, Umbrella ([18]; 13 to 15 d): 0
